From US20050209278A1, “Piperidinyl- and piperazinyl-sulfonylmethyl hydroxamic acids and their use as protease inhibitors” (priority 2002, published 2005)
pIC50: −log10 of the molar value.

Biological target: T1, MMP-1 (Homo sapiens, UniProt P03956)
T1 construct: made in house; host or cells: MMP-1-transfected HT-1080 cells (spent media)
T1 sequence (P03956 100-469): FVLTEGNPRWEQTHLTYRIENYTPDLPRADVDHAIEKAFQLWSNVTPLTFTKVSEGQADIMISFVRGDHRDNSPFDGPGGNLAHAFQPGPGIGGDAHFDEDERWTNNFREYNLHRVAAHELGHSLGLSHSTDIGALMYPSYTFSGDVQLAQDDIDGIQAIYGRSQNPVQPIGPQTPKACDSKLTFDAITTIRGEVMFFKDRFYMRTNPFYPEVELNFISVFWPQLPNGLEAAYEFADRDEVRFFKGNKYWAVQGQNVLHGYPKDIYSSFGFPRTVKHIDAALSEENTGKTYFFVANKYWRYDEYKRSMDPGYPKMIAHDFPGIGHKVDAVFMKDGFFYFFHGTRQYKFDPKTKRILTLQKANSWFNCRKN
Assay: In vitro MMP inhibition, IC50 determination (fluorogenic substrate I)
Type: biochemical
Conditions: value in parenthesis; read-out: MMP-1 (IC-50)
Method: Several hydroxamic acids and salts thereof were analyzed in in vitro assays to determine their ability to inhibit the MMP cleavage of peptide substrates. […] and IC50 constants were calculated from the assayed hydroxamic acid-MMP interactions. Human recombinant MMP-1, MMP-2, MMP-9, MMP-13, and MMP-14 were used in this assay. All enzymes were prepared in Assignee's laboratories following usual laboratory procedures. Protocols for the preparation and use of these enzymes are available in the scientific literature. See, e.g., Enzyme Nomenclature (Academic Press, San Diego, Calif., 1992) (and the citations therein). See also, Freije et al., “Molecular cloning and expression of collagenase-3, a novel human matrix metalloproteinase produced by breast carcinomas,” J Biol. Chem., 269(24), 16766-16773 (1994). The MMP-1 proenzyme was purified from the spent media of MMP-1-transfected HT-1080 cells provided by Dr. Harold Welgus of Washington University (St. Louis, Mo.). The protein was purified on a zinc chelating column. All MMPs were activated using 4-aminophenylmercuric acetate (“APMA”, Sigma Chemical, St. Louis, Mo.) or trypsin. MMP-9 also was activated using human recombinant MMP-3 (purified in Assignee's laboratory following standard cloning and purification techniques). […] Substrate (I) was purchased from Baychem (Redwood City, Calif.), and substrate II was prepared Assignee's laboratory. Substrate I was used in the IC50 determination assays, while substrate II was used in the Ki determination assays. In the absence of MMP inhibitory activity, either substrate is cleaved at the Gly-Leu peptide bond. […] The stock solutions of the assayed hydroxamic acids (or salts thereof) were prepared in 1% dimethyl sulfoxide (DMSO). […] The experiment controls contained the same amount of Buffer A/DMSO as the assayed sample, but contained no hydroxamic acid (or salt thereof). The assays from which the IC50 determinations were made were performed as follows. […] Louis, Mo.). The assayed hydroxamic acid samples were incubated in MicrofluorTM White Plates (Dynatech, Chantilly, Va.) and analyzed on a Perkin Elmer […] plate reader (Norwalk, Conn.). The excitation wavelength was 328 nm, and the emission wavelength-415 nm. […] As stated in the previous paragraph, samples containing varying concentrations of the same assayed hydroxamic acid were prepared. Inhibition was measured as a reduction in fluorescent intensity as a function of MMP inhibitor concentration. […] All values in Table 2 are given in nM units. The IC50 measurements are in parenthesis.

| Compound | pIC50 |
| --- | --- |
| O=C(NO)C1(S(=O)(=O)N2CCN(c3ccc(OC(F)(F)F)cc3)CC2)CCN(C2CC2)CC1 [Example 203] | < 5.00 |
| CCCCCCc1ccc(N2CCN(S(=O)(=O)C3(C(=O)NO)CCN(CCOC)CC3)CC2)cc1 [Example 199] | < 5.00 |
| COCCN1CCC(C(=O)NO)(S(=O)(=O)N2CCN(c3ccc(Br)cc3)CC2)CC1 [Example 201] | 5.16 |
| CCCc1ccc(N2CCN(S(=O)(=O)C3(C(=O)NO)CCN(CCOC)CC3)CC2)cc1 [Example 200] | < 5.00 |
| COCCN1CCC(C(=O)NO)(S(=O)(=O)N2CCN(c3ccc(OC(F)(F)F)cc3)CC2)CC1 [Example 202] | < 5.00 |
